Assay results reported in EP4818191A1, “PEPTIDE AND CONJUGATE CONTAINING SAID PEPTIDE” (PeptiDream Inc., priority 2023, dated 2025).

Target: T1, human CA9 (Homo sapiens, UniProt Q16790)
T1 construct: purchased SinoBiological
Assay: Intermolecular interaction against human CA9 by surface plasmon resonance (SPR)
Type: binding
Conditions: Human CA9-Fc captured on Protein A sensor chip, Single Cycle Kinetics, KD values only in Tables 7, 8 (images)
Experimental: The intermolecular interactions of the peptides against human CA9 protein were examined by surface plasmon resonance (SPR) for the various peptides or conjugates synthesized in Examples 1 and 2, according to the methods described below. Specific test methods are described below.
Protein A sensor chip (Cytiva) was inserted into BiacoreT200 (Cytiva) and primed with running buffer: 1× HBS-P+ (Cytiva), 1.0 % DMSO (Fujifilm Wako Pure Chemical Corporation), and 50 µM zinc acetate dihydrate (Hampton research), and equilibrated at a flow rate of 30 µL/min. 50 nM Human CA9-Fc (SinoBiological) diluted with running buffer was reacted at a flow rate of 5 µL/min for 60 seconds and captured into a flow cell.
A solution containing each peptide or conjugate synthesized in Example 1 or 2 and prepared at 1 mM in DMSO solution was diluted with running buffer to a final concentration of 100 nM. Then, the peptide or conjugate solutions at 25 nM and 5 nM were further prepared. Depending on the affinity of the peptide or conjugate, the solution was diluted with running buffer to a final concentration of 40 nM. […]
Using the above samples, the kinetics of each peptide or conjugate against human CA9 was obtained by SPR measurement. […] The binding of each peptide or conjugate to human CA9 was evaluated by performing least-squares curve fitting on the obtained sensorgram to calculate the KD value.

With “C1Ac-da-Tbg-3Py6CON-Hgl-Meda-Ahp-PeG-S-3Py6NH2-HseMe-dk-Y-MeC [SEQ ID No. 45]” the “activity of binding to human CA9 (CA9 binding ability)” value was “possesses CA9 binding ability”.
